Data on two substances can be found in patent publication US20230330221A1, “ADJUVANT BASED ON PEPTIDE NUCLEIC ACID” (priority 2019, published 2023).

Entries after “also recorded” stand apart in the source; their conditions may differ. Like-named read-outs stand apart in the source and are kept apart here.

Test [1] relates to A/Singapore/GP1908/2015 strain. Type of test: in vivo, BALB/c mouse. As to conditions: subcutaneous, both first and second administrations.
The test system of test [2] is B/Maryland/15/2016 strain. In kind it is in vivo, BALB/c mouse. As to conditions: subcutaneous, both first and second administrations.
Test [3] deals with A/Singapore/GP1908/2015 strain. In kind it is in vivo, BALB/c mouse. The settings on record: subcutaneous, 1 μg adjuvant per shot, after the second administration; rank among MIP01, adjuvant-free and CPP01 groups (FIG. 2).
Test [4] deals with A/Singapore/GP1908/2015 strain. In kind it is in vivo. As to conditions: transnasal, 10 μg adjuvant + 1 μg HA split antigen per shot, BALB/c mouse, both first and second administrations; versus adjuvant-free group (FIG. 3A).
Test [5] deals with B/Maryland/15/2016 strain. Type of test: in vivo. The settings on record: transnasal, 10 μg adjuvant + 1 μg HA split antigen per shot, BALB/c mouse, both first and second administrations; versus adjuvant-free group; Mann-Whitney U test, p<0.05 (FIG. 3B).
The test system of test [6] is A/Singapore/GP1908/2015 strain. Type of test: in vivo, BALB/c mouse. As to conditions: transnasal, 10 μg adjuvant per shot; rank among MIP01, adjuvant-free and CPP01 groups (FIG. 4A).
Test [7] deals with B/Maryland/15/2016 strain. Type of test: in vivo, BALB/c mouse. As to conditions: transnasal, 10 μg adjuvant per shot; rank among MIP01, adjuvant-free and CPP01 groups (FIG. 4B).

For “GRKKRRQRRRPPQ-G3PNA (C-terminal G3PNA conjugate; Human immunodeficiency virus) [MIP01]”, the “blood antigen-specific IgG titer against A/Singapore/GP1908/2015 strain” value was “higher as compared to that in the adjuvant-free group” in test [1] (1 μg adjuvant + 1 μg HA split antigen per shot, BALB/c mouse, versus adjuvant-free group (FIG. 1A)); “showed a higher blood antigen-specific IgG titer” in test [1] (1 μg adjuvant per shot, compared to the CPP01 administration group (FIG. 1A)); “higher as compared to that in the adjuvant-free group” in test [4]. The “blood antigen-specific IgG titer against B/Maryland/15/2016 strain” value in test [2] (1 μg adjuvant + 1 μg HA split antigen per shot, BALB/c mouse, versus adjuvant-free group (FIG. 1B)) is “higher as compared to that in the adjuvant-free group”; in test [2] (1 μg adjuvant per shot, compared to the CPP01 administration group (FIG. 1B)) it was “showed a higher blood antigen-specific IgG titer”; in test [5], “higher as compared to that in the adjuvant-free group; also recorded: significant increase in antibody titer with respect to the adjuvant-free group”. The “neutralizing antibody titer against A/Singapore/GP1908/2015 strain” value in test [3] is reported as “highest value”. The “antigen-specific IgA titer in the nasal cavity wash against A/Singapore/GP1908/2015 strain” value in test [6] is “highest”. The “antigen-specific IgA titer in the nasal cavity wash against B/Maryland/15/2016 strain” value in test [7] is on record as “highest”.

With “GRKKRRQRRRPPQ (Human immunodeficiency virus) [CPP01, reference compound]”, in test [3], the “neutralizing antibody titer against A/Singapore/GP1908/2015 strain” value is on record as “lowest value”. The “antigen-specific IgA titer in the nasal cavity wash against A/Singapore/GP1908/2015 strain” value in test [6] is reported as “lowest”. The “antigen-specific IgA titer in the nasal cavity wash against B/Maryland/15/2016 strain” value in test [7] is listed as “lowest”.
